Active and inactive are the calls of the source. The rule behind the calls is not given here.
Tested on: Human immunodeficiency virus
Experiment: Antiviral activity against HIV assessed as inhibition of viral replication
Assay type: functional, organism-based

SMILES: COC1=CC(=O)C=C(C/C=C(\C)CC/C=C(\C)CCC=C(C)C)C1=O
- Activity: inactive

SMILES: COc1cc(O)cc(C/C=C(\C)CC/C=C(\C)CCC=C(C)C)c1O
- Activity: inactive

Reference: ChEMBL document CHEMBL1149062, “A Sesquiterpene Quinone and Hydroquinone from the Southern Australian Marine Sponge, Thorecta choanoides” (J Nat Prod, 1994)
